Laboratory results as given in patent US20130317055A1, “NEURONAL NICOTINIC AGONIST AND METHODS OF USE” (ABBVIE INC., priority 2012, published 2013).

System: clinically stable subjects with schizophrenia
Test: Clinical Study A (Phase 2a, placebo-controlled): MATRICS Consensus Cognitive Battery (MCCB)
Type: in vivo, human
Settings: for MCCB Reasoning and Problem Solving: Difference from Placebo LS Mean (SE) of Difference / MCCB Reasoning and Problem Solving: LS Mean (SE) of Change from Baseline / MCCB Reasoning and Problem Solving: Observed Mean (SD) of change from baseline / MCCB Attention/Vigilance: Difference from Placebo LS Mean (SE) of Difference / MCCB Attention/Vigilance: LS Mean (SE) of Change from Baseline / MCCB Attention/Vigilance: Observed Mean (SD) of change from baseline / MCCB Social Cognition: Difference from Placebo LS Mean (SE) of Difference / MCCB Social Cognition: LS Mean (SE) of Change from Baseline / MCCB Social Cognition: Observed Mean (SD) of change from baseline / MCCB Speed of Processing: Difference from Placebo LS Mean (SE) of Difference / MCCB Speed of Processing: LS Mean (SE) of Change from Baseline / MCCB Speed of Processing: Observed Mean (SD) of change from baseline / MCCB Verbal Learning: Difference from Placebo LS Mean (SE) of Difference / MCCB Verbal Learning: LS Mean (SE) of Change from Baseline / MCCB Verbal Learning: Observed Mean (SD) of change from baseline / MCCB Visual Learning: Difference from Placebo LS Mean (SE) of Difference / MCCB Visual Learning: LS Mean (SE) of Change from Baseline / MCCB Visual Learning: Observed Mean (SD) of change from baseline / MCCB Working Memory: Difference from Placebo LS Mean (SE) of Difference / MCCB Working Memory: LS Mean (SE) of Change from Baseline / MCCB Working Memory: Observed Mean (SD) of change from baseline: ITT
Description: A Phase 2a proof-of-concept (POC) study in clinically stable subjects with schizophrenia who were clinically stable and received stable doses of atypical antipsychotic therapy. The study was a Phase 2, multi-center, randomized, double-blind, placebo-controlled, parallel group study designed to evaluate the safety and efficacy of doses of (4s)-4-(5-phenyl-1,3,4-thiadiazol-2-yloxy)-1-azatricyclo[3.3.1.1^3,7]decane (Compound A) in clinically stable male and female subjects (ages 20 to 55, inclusive) with a Diagnostic and Statistical Manual of Mental Disorders Fourth Edition, Text Revision (DSM-IV-TR) diagnosis of schizophrenia. Psychiatric diagnoses were confirmed using the Mini-International Neuropsychiatric Interview (MINI) version 6.0.0. The criteria for clinical stability was determined by a combination of retrospective data (over the 4 months prior to the start of Screening, which will be supported by clinical records, patient, identified responsible contact person, and physician interviews), and prospective data assessed during the Prospective Stabilization Period of 28 to 42 days duration.
The study was a Phase 2, multi-center, randomized, double-blind, placebo-controlled, parallel group study designed to evaluate the safety and efficacy of doses of (4s)-4-(5-phenyl-1,3,4-thiadiazol-2-yloxy)-1-azatrieyclo[3.3.1.1^3,7]decane, which is also recognized as Compound A, in treating cognitive deficits in subjects with schizophrenia who were clinically stable and receiving one or two atypical antipsychotic medications. Study drug was administered orally.
The study consisted of a screening period of at least 28 and up to 42 days, a 84-day outpatient treatment period, a 14-day post-treatment period, and a post-treatment follow-up period. The screening period consisted of three visits: Screening Visit 1, Screening Visit 2, and Day −1. Upon completion of Day −1 procedures, eligible subjects were randomized through an Interactive Voice Response/Interactive Web-Based (IVR/IWB) system. Subjects were randomized in an equal ratio to one of three treatment groups (placebo, 10 mg Compound A, or 25 mg Compound A).
Subjects were randomized in a 1:1:1 ratio with placebo, 10 mg QD Compound A, of 25 mg Compound A. Each subject was instructed to take study drug once-daily in the morning for 12 weeks. Each daily dose was preferably taken with food. The subject and investigator were blinded to the treatment assignment throughout the study. The treatment assignments for the study subjects are shown below in Table 1.
The primary endpoint was the MCCB composite score, and the primary endpoint analysis was the change on the MCCB composite score from baseline to endpoint versus placebo. Other secondary measures included the MCCB domains, the NSA-16, the CANTAB cognition battery (measured at different time points from the MCCB), and the UPSA-2. The Positive and Negative Syndrome Scale (PANSS) was included to document stability in schizophrenia symptomatology.
The MCCB was developed by a consortium of academic, industry, the Food and Drug Administration (FDA) and National Institute of Mental Health ([…]) members called Measurement and Treatment Research to Improve Cognition in Schizophrenia (MATRICS). The battery was established in a multiple phase process that involved experts identifying cognitive tests in the literature that had shown deficits in schizophrenia, use of factor analysis to identify key domains of cognitive deficits in schizophrenia, and then empirically identifying the best tests for each domain based on reliability, validity and feasibility for use in clinical trials. The FDA has endorsed the MCCB as an appropriate outcome measure for Phase 3 CDS trials. […]

With `c1ccc(-c2nnc(O[C@@H]3C4CC5C[C@H]3C[N@](C5)C4)s2)cc1` [Compound A, (4s)-4-(5-phenyl-1,3,4-thiadiazol-2-yloxy)-1-azatricyclo[3.3.1.1^3,7]decane] the “MCCB Reasoning and Problem Solving: Difference from Placebo LS Mean (SE) of Difference” value (10 mg QD, Change to Week 2) was 1.24 (1.18) T-score, the “MCCB Reasoning and Problem Solving: LS Mean (SE) of Change from Baseline” value (10 mg QD, Change to Week 2) was 1.99 (0.84) T-score and the “MCCB Reasoning and Problem Solving: Observed Mean (SD) of change from baseline” value (10 mg QD, Change to Week 2) was 1.70 (6.03) T-score. The “MCCB Attention/Vigilance: Difference from Placebo LS Mean (SE) of Difference” value (10 mg QD, Change to Week 6) was 1.29 (1.35) T-score, the “MCCB Attention/Vigilance: LS Mean (SE) of Change from Baseline” value (10 mg QD, Change to Week 6) was 0.49 (0.98) T-score and the “MCCB Attention/Vigilance: Observed Mean (SD) of change from baseline” value (10 mg QD, Change to Week 6) was 0.83 (7.62) T-score. The “MCCB Reasoning and Problem Solving: Difference from Placebo LS Mean (SE) of Difference” value (10 mg QD, Change to Week 6) was 0.53 (1.03) T-score, the “MCCB Reasoning and Problem Solving: LS Mean (SE) of Change from Baseline” value (10 mg QD, Change to Week 6) was 0.49 (0.75) T-score and the “MCCB Reasoning and Problem Solving: Observed Mean (SD) of change from baseline” value (10 mg QD, Change to Week 6) was 0.08 (5.57) T-score. For the same compound, the “MCCB Social Cognition: Difference from Placebo LS Mean (SE) of Difference” value (10 mg QD, Change to Week 6) was −0.46 (1.34) T-score, the “MCCB Social Cognition: LS Mean (SE) of Change from Baseline” value (10 mg QD, Change to Week 6) was 1.04 (0.97) T-score and the “MCCB Social Cognition: Observed Mean (SD) of change from baseline” value (10 mg QD, Change to Week 6) was 1.14 (7.87) T-score. The “MCCB Speed of Processing: Difference from Placebo LS Mean (SE) of Difference” value (10 mg QD, Change to Week 6) was 0.74 (1.04) T-score, the “MCCB Speed of Processing: LS Mean (SE) of Change from Baseline” value (10 mg QD, Change to Week 6) was 1.13 (0.74) T-score and the “MCCB Speed of Processing: Observed Mean (SD) of change from baseline” value (10 mg QD, Change to Week 6) was 1.00 (5.49) T-score. The “MCCB Verbal Learning: Difference from Placebo LS Mean (SE) of Difference” value (10 mg QD, Change to Week 6) was 0.24 (1.12) T-score, the “MCCB Verbal Learning: LS Mean (SE) of Change from Baseline” value (10 mg QD, Change to Week 6) was 0.31 (0.82) T-score and the “MCCB Verbal Learning: Observed Mean (SD) of change from baseline” value (10 mg QD, Change to Week 6) was 0.68 (7.99) T-score. For the same compound, the “MCCB Visual Learning: Difference from Placebo LS Mean (SE) of Difference” value (10 mg QD, Change to Week 6) was 1.74 (1.57) T-score, the “MCCB Visual Learning: LS Mean (SE) of Change from Baseline” value (10 mg QD, Change to Week 6) was 1.59 (1.13) T-score and the “MCCB Visual Learning: Observed Mean (SD) of change from baseline” value (10 mg QD, Change to Week 6) was 1.35 (9.36) T-score. The “MCCB Working Memory: Difference from Placebo LS Mean (SE) of Difference” value (10 mg QD, Change to Week 6) was 0.86 (1.03) T-score, the “MCCB Working Memory: LS Mean (SE) of Change from Baseline” value (10 mg QD, Change to Week 6) was 0.35 (0.75) T-score and the “MCCB Working Memory: Observed Mean (SD) of change from baseline” value (10 mg QD, Change to Week 6) was 0.27 (5.15) T-score. For the same compound, the “MCCB Attention/Vigilance: Difference from Placebo LS Mean (SE) of Difference” value (10 mg QD, Change to Week 12) was 2.63 (1.49) T-score, the “MCCB Attention/Vigilance: LS Mean (SE) of Change from Baseline” value (10 mg QD, Change to Week 12) was 0.64 (1.06) T-score and the “MCCB Attention/Vigilance: Observed Mean (SD) of change from baseline” value (10 mg QD, Change to Week 12) was 1.15 (8.46) T-score. The “MCCB Social Cognition: Difference from Placebo LS Mean (SE) of Difference” value (10 mg QD, Change to Week 12) was 0.40 (1.52) T-score, the “MCCB Social Cognition: LS Mean (SE) of Change from Baseline” value (10 mg QD, Change to Week 12) was 0.99 (1.08) T-score and the “MCCB Social Cognition: Observed Mean (SD) of change from baseline” value (10 mg QD, Change to Week 12) was 1.38 (6.51) T-score. The “MCCB Speed of Processing: Difference from Placebo LS Mean (SE) of Difference” value (10 mg QD, Change to Week 12) was 1.08 (1.20) T-score, the “MCCB Speed of Processing: LS Mean (SE) of Change from Baseline” value (10 mg QD, Change to Week 12) was 2.36 (0.85) T-score and the “MCCB Speed of Processing: Observed Mean (SD) of change from baseline” value (10 mg QD, Change to Week 12) was 2.33 (6.05) T-score. The “MCCB Verbal Learning: Difference from Placebo LS Mean (SE) of Difference” value (10 mg QD, Change to Week 12) was 0.61 (1.10) T-score, the “MCCB Verbal Learning: LS Mean (SE) of Change from Baseline” value (10 mg QD, Change to Week 12) was 1.08 (0.79) T-score and the “MCCB Verbal Learning: Observed Mean (SD) of change from baseline” value (10 mg QD, Change to Week 12) was 1.28 (7.06) T-score. For the same compound, the “MCCB Visual Learning: Difference from Placebo LS Mean (SE) of Difference” value (10 mg QD, Change to Week 12) was 0.73 (1.59) T-score, the “MCCB Visual Learning: LS Mean (SE) of Change from Baseline” value (10 mg QD, Change to Week 12) was 0.29 (1.12) T-score and the “MCCB Visual Learning: Observed Mean (SD) of change from baseline” value (10 mg QD, Change to Week 12) was 0.05 (8.06) T-score. The “MCCB Working Memory: Difference from Placebo LS Mean (SE) of Difference” value (10 mg QD, Change to Week 12) was 0.80 (1.18) T-score, the “MCCB Working Memory: LS Mean (SE) of Change from Baseline” value (10 mg QD, Change to Week 12) was 0.92 (0.84) T-score and the “MCCB Working Memory: Observed Mean (SD) of change from baseline” value (10 mg QD, Change to Week 12) was 0.83 (7.04) T-score. The “MCCB domains with dose response relationship” value (10 mg and 25 mg, exception reasoning) was 6 of the 7 domains, the “MCCB composite score: LS mean change from baseline” value (10 mg, baseline to Week 6, MNIRIVI analysis, placebo LS mean +0.49) was “+1.25” and the “MCCB Reasoning and Problem Solving: Difference from Placebo LS Mean (SE) of Difference” value (25 mg QD, Change to Week 2) was 1.20 (1.24) T-score.
